Paper PMC9569954, “The Antidepressant-like Activity, Effects on Recognition Memory Deficits, Bioavailability, and Safety after Chronic Administration of New Dual-Acting Small Compounds Targeting Neuropsychiatric Symptoms in Dementia” (International Journal of Molecular Sciences, 2022)
pKi: −log10 of the molar value.

Key:
Bdnf gene = Bdnf gene expression in brain structures (RT-qPCR, ex vivo); parameters: species or system rats; settings: rat, 1 mg/kg/day i.p., 21 days; for Bdnf expression upregulation vs control, hippocampus: hippocampus (Hipp); for Bdnf expression upregulation vs control, prefrontal cortex: prefrontal cortex (PFX)
Method: Animals in all treatment groups were sacrificed by rapid decapitation immediately after the behavioral tests, when the brains and blood samples were collected. For quantitative reverse transcription-polymerase chain reaction (RT-qPCR), the brains of rats were rapidly removed, and the hippocampus and prefrontal cortex were dissected on an ice-cold glass plate. The tissues were frozen in dry ice and stored at −80 °C until required.
The total RNA was extracted from tissues using an RNA Isolation kit (Thermo Fisher Scientific, Rockford, IL, USA), and its concentration was normalized to 20 ng/μL. Reverse transcription was performed with a High-Capacity Reverse Transcription Kit (Life Technologies, Grand Island, NY, USA). A qPCR fast 96-well reaction plate was used for the process with TaqMan Gene Expression assay (Life Technologies) for brain-derived neurotrophic factor Bdnf (Rn02531967_s1) on an Applied Biosystems® 7500 Fast Real-Time PCR Instrument (Applied Biosystems, Foster City, CA, USA), according to the manufacturer’s protocol. Glyceraldehyde-3-phosphate dehydrogenase, Gapdh (Rn01775763_g1), was selected as endogenous control, based on the pilot experiment. Relative normalized expression was calculated using the ΔΔCq method.

[1] = tested on: (+)-MK-801-induced memory deficits; assay: Novel object recognition (NOR) test in (+)-MK-801 treated rats; assay type: in vivo, male Wistar rats; settings: rat; for Total Exploratory Time in T2 Session: vehicle 49.67 ± 4.63; for effect on (+)-MK-801-induced recognition memory deficits (discrimination index): 21 days, (+)-MK-801 0.1 mg/kg i.p.
Method: The rats were injected with the respective compounds for 21 consecutive days at the minimum active doses selected previously, based on acute treatment and assessment in the NOR test. The protocol for the NOR test was adapted from the original work and the test was performed according to the previously described protocol, 24 h after the last injection of the investigated compound. The discrimination index (DI) was calculated according to the formula:(7) DI=(EB−EA)/(EA+EB) where EB is the exploration time of novel object during the T2 session and EA is the exploration time of […].
PQA-AZ4 and PQA-AZ-6 were administered for 60 and 30 min, respectively, before the T1 phase (the familiarization phase). MK-801 was used to attenuate learning and was administered at a dose of 0.1 mg/kg (i.p.) 30 min before the familiarization phase (T1). The total exploration time in T2 was used to determine the influence of the treatment on the exploratory activity of the animals.

rats = assay: 18-hour spontaneous activity monitoring; assay type: in vivo, male Wistar rats; settings: rat, 1 mg/kg/day i.p.
Method: Spontaneous activity was measured on the 20th day of the treatment with a special, innovative, radio-frequency identification system (RFID-system), TraffiCage (TSE-Systems, Bad Homburg, Germany). The test was conducted according to the method described previously. The animals had RFID transmitters implanted subcutaneously, which tracked the time they spent in different areas of the cage.

Body weight measurement = assay type: in vivo, rats; settings: rat, 20-day administration, 1 mg/kg/day i.p.
Method: Body weight was measured every second day, immediately before the administration of drugs.

[2] = Serum glucose, triglyceride and cholesterol concentrations; assay type: in vivo, rats; settings: rat, 1 mg/kg/day i.p., 21 days
Method: (§1) The blood samples were collected immediately after decapitation and then centrifuged at 600× g […], 4 °C, to separate the plasma. The blood was used to determine metabolic parameters such as glucose, cholesterol, and triglyceride levels, together with liver enzymatic activity.
Standard enzymatic spectrophotometric tests (Biomaxima S.A., Lublin, Poland) were used to determine glucose, cholesterol, and triglyceride levels in the serum. In the presence of an appropriate enzyme, the substrate was converted to a colored compound. Absorbance was measured at a wavelength of 500 nm.

[3] = Liver enzymatic activity in serum (AlaT, AspaT, γGTP, ALP); assay type: in vivo, rats; settings: rat, 1 mg/kg/day i.p.; for activity of AlaT, AspaT, γGTP, ALP in serum: three-week administration
Method: as §1
To determine alanine aminotransferase (AlaT), […] (AspaT), alkaline phosphatase (ALP), or gamma-glutamyl transpeptidase (γGTP) activities in the serum, a standard enzymatic spectrophotometric test (Biomaxima S.A., Lublin, Poland) was used. Absorbance was measured at a wavelength of 340 nm (AlaT, AspaT) or 405 nm (ALP, γGTP).

[4] = Ferric-reducing antioxidant power (FRAP) of serum; assay type: in vivo, rats; settings: rat, 1 mg/kg/day i.p., 21 days
Method: The assay was performed according to Benzie and Strain [46] with some modifications. The FRAP working solution was prepared before the start of the analysis, namely, 0.3 mol acetate buffer (pH 3.6), 0.01 mol TPTZ (2,4,6-tripyridyl-s-triazine; Sigma-Aldrich) in 0.04 mol HCl (POCh, Gliwice, Poland), and 0.02 M FeCl3×6H2O in water (iron (III) chloride hexahydrate; Chempur, Piekary Śląskie, Poland) were mixed in a volumetric ratio of 10:1:1 and protected from light.
Next, 20 µL of the plasma sample tested, brain homogenate, or FeSO4×7H2O solution was mixed with 180 µL of the FRAP working solution. The mixtures obtained were incubated at 37 °C for 30 min and their absorbance was measured at 593 nm. FeSO4×7H2O (100–1000 µM/L) was used for a calibration curve. Deionized water with FRAP solution was used as a blank.

[5] = MTT cytotoxicity on normal human dermal fibroblast cells; assay type: cell-based; settings: NHDF cells (normal human dermal fibroblasts), highest tested concentration (75 μM), read-out: cell viability
Excerpt: Alpha-MEM and the normal human dermal fibroblast cell line (NHDF) were obtained from Lonza (Lonza, Warsaw, Poland). Phosphate-buffered saline (PBS), fetal bovine serum (FBS), L-glutamine, and 100× antibiotic–antimycotic were from Cytogene (Zgierz, Poland). MTT (3-(4,5-dimethylthiazol-2-yl)-2,5-diphenyltetrazolium bromide) was from Sigma-Aldrich (Poznan, Poland) and DMSO was purchased from Archem (Kamieniec Wroclawski, Poland).
The viability of NHDF cells after treatment with PQA-AZ4 and PQA-AZ-6 was assayed using the previously described methodology. Briefly, 4.5 × 10^3 cells/well were seeded into a 96-multiwell plate and viability was evaluated using the MTT assay. Different volumes of each compound dissolved in DMSO (final concentrations 4.68, 9.37, 18.75, 37.5, and 75 μM, respectively), as well as DMSO itself as solvent control, were added to each well, mixed, and incubated for 48 h. Finally, the optical density was measured at 560 nm with a reference wavelength of 670 nm using an Asys UVM 340 Microplate Reader (Cambridge, UK). Results were expressed as the percentage of survival cells concerning the control (not treated cells).

5-HT1AR = target: 5-HT1AR; parameters: method as in PMID 35248836; settings: read-out: Affinity 5-HT1AR Ki; cited from earlier work
5-HT7R = target: 5-HT7R; parameters: method as in PMID 35248836; settings: read-out: Affinity 5-HT7R Ki; cited from earlier work

serum glucose concentration vs vehicle [2] | serum triglycerides concentration vs vehicle [2] | γGTP activity in serum vs control ([3]; 21 days) | activity of AlaT, AspaT, γGTP, ALP in serum [3] | total antioxidant activity of serum (Fe2+ formed, FRAP) vs control [4] | SMILES | Bdnf expression upregulation vs control, hippocampus (Bdnf gene) | Bdnf expression upregulation vs control, prefrontal cortex (Bdnf gene) | Total Exploratory Time in T2 Session ([1]; 3 mg/kg/day i.p. 21 days + (+)-MK-801 0.1 mg/kg) | effect on (+)-MK-801-induced recognition memory deficits (discrimination index) ([1]; 3 mg/kg/day i.p.) | spontaneous activity vs vehicle (rats; eighteen hours after 20-day administration) | weight gain vs vehicle (Body weight measurement) | viability at 48 h, 75 µM [5] [%] | pKi (5-HT1AR) | pKi (5-HT7R) | Total Exploratory Time in T2 Session ([1]; 1 mg/kg/day i.p. 21 days + (+)-MK-801 0.1 mg/kg) | effect on (+)-MK-801-induced recognition memory deficits (discrimination index) ([1]; 1 mg/kg/day i.p.) | spontaneous activity vs vehicle (rats; five and six hours after 20-day administration) | total cholesterol concentration vs vehicle [2]
did not significantly change | did not significantly change | significantly lower | no significant changes | comparable | COc1cc2ncnc(N3CCC(CN4CCN(c5ccc(Cl)cc5)CC4)C3)c2cc1OC (stereo not shown) [PQA-AZ6, 4-(3-((4-(4-Chlorophenyl)piperazin-1-yl)methyl)pyrrolidin-1-yl)-6,7-dimethoxyquinazoline] | about 33 fold | ~12 fold | 39.57 ± 4.39 F(2,17) = 1.3060; NS s | restored recognition memory deficits | decreased | No significant effect | 84 | 6.46 | 6.87 | – | – | – | –
did not significantly change | did not significantly change | – | no significant changes | comparable | COc1cccc(N2CCN(CC3CCN(c4ncnc5cc(OC)c(OC)cc45)C3)CC2)c1 (stereo not shown) [PQA-AZ4, 6,7-Dimethoxy-4-(3-((4-(3-methoxyphenyl)piperazin-1-yl)methyl)pyrrolidin-1-yl)quinazoline] | about 2.8 fold | about 10 fold | – | – | – | No significant effect | 19.9 | 7.74 | 6.63 | 28.83 ± 2.50 p < 0.01 vs. veh; p < 0.05 vs. (+)-MK-801 F(2,16) = 7.3773; p < 0.01 | restored recognition memory deficits | increased | slight but statistically significant (p < 0.05) increase
